From PubChem BioAssay AID328 (DTP/NCI, 2004) come the findings set out here.

The test system of this assay is BDF1 mice, P388 leukemia ip, median survival T/C. Briefly: NCI In Vivo Anticancer Drug Screen. Data for tumor model P388 Leukemia (intraperitoneal) in B6D2F1 (BDF1) mice. As to conditions: endpoint: median survival time, higher = longer survival. In a few lines: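 Transplantable tumour in mice; compound vs vehicle dosing; survival scored; ratio of treated to control reported.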

The mark [1] stands for this setting: dose: 50.0 mg/kg/injection, schedule: Q01DX009 (ip), vehicle: saline with Tween-80.
Setting [2] is: dose: 100.0 mg/kg/injection, schedule: Q01DX009 (ip), vehicle: saline with Tween-80.
Setting [3] is: dose: 200.0 mg/kg/injection, schedule: Q01DX009 (ip), vehicle: saline with Tween-80.
Setting [4] is: dose: 100.0 mg/kg/injection, schedule: Q04DX003 (ip), vehicle: saline with Tween-80.
The mark [5] stands for this setting: dose: 200.0 mg/kg/injection, schedule: Q04DX003 (ip), vehicle: saline with Tween-80.
Where [6] appears, read: dose: 100.0 mg/kg/injection, schedule: Q01DX009 (ip), vehicle: saline.
The mark [7] stands for this setting: dose: 200.0 mg/kg/injection, schedule: Q01DX009 (ip), vehicle: saline.
Where [8] appears, read: dose: 400.0 mg/kg/injection, schedule: Q01DX009 (ip), vehicle: saline.
Where [9] appears, read: dose: 100.0 mg/kg/injection, schedule: Q04DX002 (ip), vehicle: saline with Tween-80.
Where [10] appears, read: dose: 200.0 mg/kg/injection, schedule: Q04DX002 (ip), vehicle: saline with Tween-80.
[11] abbreviates: dose: 400.0 mg/kg/injection, schedule: Q04DX002 (ip), vehicle: saline with Tween-80.
The mark [12] stands for this setting: dose: 12.5 mg/kg/injection, schedule: Q01DX009 (ip), vehicle: saline with Tween-80.
Setting [13] is: dose: 25.0 mg/kg/injection, schedule: Q01DX009 (ip), vehicle: saline with Tween-80.

Several values for one entry are separate records, joined by “and”; a condition that tells them apart may be missing. Identical values can stand only once. Toxic doses and inconclusive results are not listed.

For the compound `NC(CS/C(Cl)=C/Cl)C(=O)O` (centres undefined), the T/C (dose: 1.5 mg/kg/injection, schedule: Q01DX009 (ip), vehicle: saline) was 95 % of control; the T/C (dose: 3.0 mg/kg/injection, schedule: Q01DX009 (ip), vehicle: saline) was 100 % of control and 109 % of control; the T/C (dose: 6.0 mg/kg/injection, schedule: Q01DX009 (ip), vehicle: saline) was 92 % of control and 95 % of control; the T/C (dose: 7.4 mg/kg/injection, schedule: Q01DX009 (ip), vehicle: saline) was 109 % of control; the T/C (dose: 11.0 mg/kg/injection, schedule: Q01DX009 (ip), vehicle: saline) was 113 % of control; the T/C (dose: 12.0 mg/kg/injection, schedule: Q01DX009 (ip), vehicle: saline) is 90 % of control. Also, the T/C reads like this: (dose: 16.0 mg/kg/injection, schedule: Q04DX003 (ip), vehicle: saline) 120 % of control; (dose: 17.0 mg/kg/injection, schedule: Q01DX009 (ip), vehicle: saline) 152 % of control; (dose: 25.0 mg/kg/injection, schedule: Q04DX003 (ip), vehicle: saline) 120 % of control; (dose: 27.0 mg/kg/injection, schedule: Q01DX009 (ip), vehicle: saline) 168 % of control; (dose: 35.0 mg/kg/injection, schedule: Q04DX003 (ip), vehicle: saline) 104 % of control.

For `COC(=O)C(C#N)=N/C=C/C=C1/N(C)c2ccccc2C1(C)C`, the T/C is 96 % of control under setting [1], 92 % of control under setting [2] and 99 % of control under setting [3].

With `O=C1OC(=Nc2cccc([N+](=O)[O-])c2)c2ccccc21`, the T/C under setting [1] was 150 % of control and the T/C under setting [3] is 97 % of control.

For `C[n+]1c(-c2ccc(Cl)c(Cl)c2)c2cc(N)ccc2c2ccccc21`, the T/C reads like this: (dose: 0.78 mg/kg/injection, schedule: Q01DX009 (ip), vehicle: water) 107 % of control; (dose: 0.78 mg/kg/injection, schedule: Q04DX003 (ip), vehicle: water) 100 % of control; (dose: 1.56 mg/kg/injection, schedule: Q01DX009 (ip), vehicle: water) 114 % of control; (dose: 1.56 mg/kg/injection, schedule: Q04DX003 (ip), vehicle: water) 100 % of control; (dose: 3.12 mg/kg/injection, schedule: Q04DX003 (ip), vehicle: water) 106 % of control; (dose: 6.25 mg/kg/injection, schedule: Q04DX003 (ip), vehicle: water) 106 % of control. For the same compound, the T/C (dose: 12.5 mg/kg/injection, schedule: Q01DX009 (ip), vehicle: water) was 109 % of control.

With `CSc1ccc(OC(=O)Nc2ccc(C)c([N+](=O)[O-])c2)cc1C`, the T/C under setting [4] is 90 % of control; the T/C under setting [5] was 95 % of control; the T/C (dose: 400.0 mg/kg/injection, schedule: Q04DX003 (ip), vehicle: saline with Tween-80) was 104 % of control.

On to `COC(=O)c1ccc(-c2cc(Cl)c3cc(S(=O)(=O)F)ccc3n2)cc1`, for which the T/C under setting [2] was 90 % of control and the T/C under setting [3] is 90 % of control.

As for `COC1OC(CNC(=O)N(C)N=O)C(O)C(O)C1O` (centres undefined), the T/C runs as follows: under setting [6], 164 % of control; under setting [7], 240 % of control; (dose: 266.0 mg/kg/injection, schedule: Q04DX003 (ip), vehicle: saline) 154 % of control; under setting [8], 309 % of control; (dose: 400.0 mg/kg/injection, schedule: Q04DX003 (ip), vehicle: saline) 162 % of control; (dose: 600.0 mg/kg/injection, schedule: Q04DX003 (ip), vehicle: saline) 216 % of control.

On to `CCOP1(=S)OCC(C)O1` (centres undefined), for which the T/C is, setting by setting: under setting [9], 105 % of control; under setting [10], 99 % of control; under setting [11], 105 % of control.

Regarding `CCC(C)Sc1nc(N)nc2c1ncn2C1OC(CO)C(O)C1O` (centres undefined), the T/C under setting [4] is 91 % of control and 109 % of control; the T/C under setting [5] was 108 % of control and 118 % of control.

With `O=S1(=O)CC(Cl)(Br)C1` (tested in a mixture with another compound), for the setting “dose: 100.0 mg/kg/injection, schedule: Q01DX009 (ip), vehicle: Klucel (hydroxypropylcellulose) (HPC)”, the T/C was 91 % of control.

Take `CS(=O)(=O)ON1C(=O)c2ccccc2C1=O`: the T/C (dose: 100.0 mg/kg/injection, schedule: Q04DX003 (ip), vehicle: saline) is 120 % of control.

In the case of `CC1(C)CC(=O)C(C(c2cccc(O)c2O)C2C(=O)CC(C)(C)CC2=O)C(=O)C1`, the T/C is, setting by setting: under setting [1], 123 % of control; under setting [2], 100 % of control; under setting [3], 91 % of control.

Regarding `Cc1ccc(Cc2c(C=O)nc(N)[nH]c2=O)c2ccccc12`, the T/C was 112 % of control under setting [12]; 96 % of control under setting [13]; 102 % of control under setting [1]; 97 % of control (dose: 50.0 mg/kg/injection, schedule: Q01DX009 (ip), vehicle: suspension in saline); 94 % of control (dose: 100.0 mg/kg/injection, schedule: Q01DX009 (ip), vehicle: suspension in saline); 106 % of control (dose: 200.0 mg/kg/injection, schedule: Q01DX009 (ip), vehicle: suspension in saline).

Turning to `COc1ccc(C(C)=O)c(OC)c1C`, the T/C runs as follows: under setting [6], 104 % of control; under setting [7], 96 % of control; under setting [8], 100 % of control.

With `CCCCCCCOC(C[N+](=O)[O-])C(Cl)(Cl)Cl` (centres undefined), the T/C is, setting by setting: (dose: 12.5 mg/kg/injection, schedule: Q01DX009 (ip), vehicle: saline) 120 % of control; (dose: 25.0 mg/kg/injection, schedule: Q01DX009 (ip), vehicle: saline) 120 % of control; (dose: 37.5 mg/kg/injection, schedule: Q04DX003 (ip), vehicle: saline) 100 % of control; (dose: 50.0 mg/kg/injection, schedule: Q01DX009 (ip), vehicle: saline) 120 % of control; (dose: 75.0 mg/kg/injection, schedule: Q04DX003 (ip), vehicle: saline) 95 % of control; (dose: 150.0 mg/kg/injection, schedule: Q04DX003 (ip), vehicle: saline) 95 % of control. For the same compound, the T/C (dose: 340.0 mg/kg/injection, schedule: Q04DX003 (ip), vehicle: saline) was 90 % of control.

With `O=C(O)C1(O)CC(O)C(O)C(O)C1` (centres undefined), the T/C runs as follows: under setting [9], 96 % of control; under setting [10], 94 % of control; under setting [11], 86 % of control.

In the case of `O=c1oc(-c2ccc(C[n+]3ccc4ccccc4c3)cc2)nc2ccccc12`, the T/C is 100 % of control (dose: 50.0 mg/kg/injection, schedule: Q01DX005 (ip), vehicle: saline with Tween-80); 99 % of control (dose: 100.0 mg/kg/injection, schedule: Q01DX005 (ip), vehicle: saline with Tween-80); 104 % of control (dose: 200.0 mg/kg/injection, schedule: Q01DX005 (ip), vehicle: saline with Tween-80).

Turning to `S=c1[nH]c2nc(Cl)c(Cl)nc2[nH]1`, the T/C under setting [12] is 94 % of control; the T/C under setting [13] was 92 % of control and 115 % of control; the T/C under setting [1] was 102 % of control; the T/C (dose: 50.0 mg/kg/injection, schedule: Q04DX003 (ip), vehicle: saline with Tween-80) is 94 % of control; the T/C under setting [2] was 94 % of control and 99 % of control; the T/C under setting [4] was 92 % of control. Moreover, the T/C runs as follows: under setting [5], 94 % of control; (dose: 300.0 mg/kg/injection, schedule: Q01DX009 (ip), vehicle: saline with Tween-80) 105 % of control.
